Test results as given in patent US20200385371A1 (Propellon Therapeutics Inc., priority 2017, published 2020).

Experiments:
MV4-11 cells = assay: Cell proliferation assay (ATPlite); type: cell-based; settings: Homo sapiens, 120 h; MV4-11 cells, five days; read-out: GI MV411 EC50
Outline: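 ATPlite luminescence after five days' culture (37° C, 5% CO2) gives viability. Compounds dosed in 10 concentrations up to 10 μM against DMSO; 1,000 cells/well seeded in Alpha-MEM/10% FBS.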

WDR5 [1] = target: T1, WDR5 (Homo sapiens, UniProt P61964); assay: Fluorescence Polarization (FP) binding assay
Outline: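 Buffer was pH 6.5 sodium phosphate (80 mM) with 20 mM KCl and 0.008% Triton X-100; 9-Ala-FAM probe at 20 nM used 0.05 μM WDR5 and 480/540 nm polarization, H3 (1-15) probe at 30 nM used 0.3 μM WDR5 and 485/528 nm. Quadruplicate data were hyperbola-fitted to give Kdisp.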

WDR5 [2] = target: T1, WDR5; assay: Surface Plasmon Resonance (SPR) assay; type: binding; design: Full length WDR5 with an N-terminal His tag and C-terminal AviTag; His tag (N); made in house; host or cells: E. coli; settings: read-out: SPR Kd
Outline: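 Full-length biotinylated WDR5 (N-His, C-AviTag, E. coli) captured (~3000 RU) on streptavidin SA chip; Biacore T200. HBS-EP pH 7.4 plus 5% DMSO running buffer, 40 μl/min.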

EC50 (MV4-11 cells) [nM] | IC50 (WDR5 [1]) [nM] | Kd (WDR5 [2]) [nM] | SMILES
440 | 13.9 | 2.2 | Cc1nc(C(=O)N2CC=C(c3c(F)cc(N4CCN(C)[C@@H](C)C4)c(NC(=O)c4c[nH]c(=O)cc4C(F)F)c3F)CC2)cs1 [Example 159, (S)-4-(difluoromethyl)-N-(6-(3,4-dimethylpiperazin-1-yl)-2,4-difluoro-3-(1-(2-methylthiazole-4-carbonyl)-1,2,3,6-tetrahydropyridin-4-yl)phenyl)-6-oxo-1,6-dihydropyridine-3-carboxamide]
162 | 16.4 | 1.43 | C[C@H]1CN(c2cc(F)c(C3=CCCN(c4ncc(F)cn4)C3)c(F)c2NC(=O)c2c[nH]c(=O)cc2C(F)(F)F)CCN1C [Example 84, (S)—N-(6-(3,4-dimethylpiperazin-1-yl)-2,4-difluoro-3-(1-(5-fluoropyrimidin-2-yl)-1,2,5,6-tetrahydropyridin-3-yl)phenyl)-6-oxo-4-(trifluoromethyl)-1,6-dihydropyridine-3-carboxamide]
10.2 | 8.92 | 0.55 | C[C@@H]1CN(c2ncc(-c3c(F)cc(N4C[C@@H](C)N(C)[C@@H](C)C4)c(NC(=O)c4c[nH]c(=O)cc4C(F)F)c3F)cn2)CCO1 [Example 130, N-(2,4-difluoro-3-(2-((R)-2-methylmorpholino)pyrimidin-5-yl)-6-((3S,5R)-3,4,5-trimethylpiperazin-1-yl)phenyl)-4-(difluoromethyl)-6-oxo-1,6-dihydropyridine-3-carboxamide]
55.8 | 11.4 | 0.87 | CC(C)OC(=O)N1CC=C(c2c(F)cc(N3C[C@@H](C)N(C)[C@@H](C)C3)c(NC(=O)c3c[nH]c(=O)cc3C(F)(F)F)c2F)C1 [Example 134]
153 | 14.1 | 2.06 | C[C@@H]1CN(c2cc(F)c(C3=CCCN(C(=O)OC4CC(F)(F)C4)C3)c(F)c2NC(=O)c2c[nH]c(=O)cc2C(F)(F)F)C[C@H](C)N1C [Example 20, 3,3-Difluorocyclobutyl 5-(2,6-difluoro-3-(6-oxo-4-(trifluoromethyl)-1,6-dihydropyridine-3-carboxamido)-4-((3S,5R)-3,4,5-trimethylpiperazin-1-yl)phenyl)-3,6-dihydropyridine-1(2H)-carboxylate]
108 | 10.1 | 1.12 | C[C@@H]1CN(c2nccc(-c3c(F)cc(N4C[C@@H](C)N(C)[C@@H](C)C4)c(NC(=O)c4c[nH]c(=O)cc4C(F)(F)F)c3F)n2)C[C@H](C)O1 [Example 77, N-(3-(2-((2S,6R)-2,6-dimethylmorpholino)pyrimidin-4-yl)-2,4-difluoro-6-((3S,5R)-3,4,5-trimethylpiperazin-1-yl)phenyl)-6-oxo-4-(trifluoromethyl)-1,6-dihydropyridine-3-carboxamide]
93.9 | 17.4 | 2.17 | C[C@H]1CN(c2cc(F)c(C3=CCCN(C(=O)OC4(C)CCC4)C3)c(F)c2NC(=O)c2c[nH]c(=O)cc2C(F)F)CCN1C [Example 94, 1-Methylcyclobutyl (S)-5-(3-(4-(difluoromethyl)-6-oxo-1,6-dihydropyridine-3-carboxamido)-4-(3,4-dimethylpiperazin-1-yl)-2,6-difluorophenyl)-3,6-dihydropyridine-1(2H)-carboxylate]
70.1 | 11.9 | 0.51 | C[C@H]1CN(c2cc(F)c(C3=CCN(c4ncc(C#N)s4)C3)c(F)c2NC(=O)c2c[nH]c(=O)cc2C(F)(F)F)CCN1C [Example 96, (S)—N-(3-(1-(5-cyanothiazol-2-yl)-2,5-dihydro-1H-pyrrol-3-yl)-6-(3,4-dimethylpiperazin-1-yl)-2,4-difluorophenyl)-6-oxo-4-(trifluoromethyl)-1,6-dihydropyridine-3-carboxamide]
7.34 | 14.4 | 2.59 | C[C@@H]1CN(c2ncc(-c3c(F)cc(N4C[C@@H](C)N(C)[C@@H](C)C4)c(NC(=O)c4ccc(F)cc4C(F)F)c3F)cn2)C[C@H](C)O1 [Example 109, 2-(Difluoromethyl)-N-(3-(2-((2S,6R)-2,6-dimethylmorpholino)pyrimidin-5-yl)-2,4-difluoro-6-((3S,5R)-3,4,5-trimethylpiperazin-1-yl)phenyl)-4-fluorobenzamide Formic Acid]
96.4 | 13.8 | 0.79 | C[C@H]1CN(c2cc(F)c(C3=CCN(c4ncc(C#N)s4)C3)c(F)c2NC(=O)c2c[nH]c(=O)cc2C(F)F)CCN1C [Example 95, (S)—N-(3-(1-(5-cyanothiazol-2-yl)-2,5-dihydro-1H-pyrrol-3-yl)-6-(3,4-dimethylpiperazin-1-yl)-2,4-difluorophenyl)-4-(difluoromethyl)-6-oxo-1,6-dihydropyridine-3-carboxamide]
382 | 15.5 | 1.15 | C[C@H]1CN(c2cc(F)c(C3=CCCN(c4ncc(F)cn4)C3)c(F)c2NC(=O)c2c[nH]c(=O)cc2C(F)F)CCN1C [Example 83, (S)-4-(difluoromethyl)-N-(6-(3,4-dimethylpiperazin-1-yl)-2,4-difluoro-3-(1-(5-fluoropyrimidin-2-yl)-1,2,5,6-tetrahydropyridin-3-yl)phenyl)-6-oxo-1,6-dihydropyridine-3-carboxamide]
26.7 | 16.5 | 0.91 | C[C@@H]1CN(c2cc(F)c(-c3cnc(N(C)C)nc3)c(F)c2NC(=O)c2c[nH]c(=O)cc2C(F)(F)F)C[C@H](C)N1C [Example 70, N-(3-(2-(dimethylamino)pyrimidin-5-yl)-2,4-difluoro-6-((3S,5R)-3,4,5-trimethylpiperazin-1-yl)phenyl)-6-oxo-4-(trifluoromethyl)-1,6-dihydropyridine-3-carboxamide]
9.55 | 13.8 | 2.49 | C[C@@H]1CN(c2cc(F)c(-c3cnc(N4C[C@H](C)O[C@@H](C)C4)nc3)c(F)c2NC(=O)c2c[nH]c(=O)cc2C(F)(F)F)C[C@H](C)N1C [Example 88, N-(3-(2-((2S,6S)-2,6-dimethylmorpholino)pyrimidin-5-yl)-2,4-difluoro-6-((3S,5R)-3,4,5-trimethylpiperazin-1-yl)phenyl)-6-oxo-4-(trifluoromethyl)-1,6-dihydropyridine-3-carboxamide]
9.48 | 14.1 | 1.29 | C[C@@H]1CN(c2ncc(-c3c(F)cc(N4C[C@@H](C)N(C)[C@@H](C)C4)c(NC(=O)c4c[nH]c(=O)cc4C(F)F)c3F)cn2)C[C@H](C)O1 [Example 111, 4-(Difluoromethyl)-N-(3-(2-((2S,6R)-2,6-dimethylmorpholino)pyrimidin-5-yl)-2,4-difluoro-6-((3S,5R)-3,4,5-trimethylpiperazin-1-yl)phenyl)-6-oxo-1,6-dihydropyridine-3-carboxamide]
101 | 19.7 | 0.97 | COc1cc(N2CC=C(c3c(F)cc(N4CCN(C)[C@@H](C)C4)c(NC(=O)c4c[nH]c(=O)cc4C(F)F)c3F)CC2)ncn1 [Example 67, (S)-4-(difluoromethyl)-N-(6-(3,4-dimethylpiperazin-1-yl)-2,4-difluoro-3-(1-(6-methoxypyrimidin-4-yl)-1,2,3,6-tetrahydropyridin-4-yl)phenyl)-6-oxo-1,6-dihydropyridine-3-carboxamide]
35 | 15 | 2.4 | C[C@H]1CN(c2cc(F)c(C3=CCN(c4ccnc(C#N)n4)CC3)c(F)c2NC(=O)c2c[nH]c(=O)cc2C(F)(F)F)CCN1C [Example 112, (S)—N-(3-(1-(2-cyanopyrimidin-4-yl)-1,2,3,6-tetrahydropyridin-4-yl)-6-(3,4-dimethylpiperazin-1-yl)-2,4-difluorophenyl)-6-oxo-4-(trifluoromethyl)-1,6-dihydropyridine-3-carboxamide]
141 | 20.1 | 1.59 | C[C@H]1CN(c2ccc(-c3c(F)cc(N4CCN(C)[C@@H](C)C4)c(NC(=O)c4ccc(F)cc4C(F)F)c3F)cn2)CCO1 [Example 179, 2-(Difluoromethyl)-N-(6-((S)-3,4-dimethylpiperazin-1-yl)-2,4-difluoro-3-(6-((S)-2-methylmorpholino)pyridin-3-yl)phenyl)-4-fluorobenzamide]
101 | 23 | 1.72 | C[C@@H]1CN(c2ccc(-c3c(F)cc(N4CCN(C)[C@@H](C)C4)c(NC(=O)c4ccc(F)cc4C(F)F)c3F)cn2)CCO1 [Example 177, 2-(Difluoromethyl)-N-(6-((S)-3,4-dimethylpiperazin-1-yl)-2,4-difluoro-3-(6-((R)-2-methylmorpholino)pyridin-3-yl)phenyl)-4-fluorobenzamide]
173 | 14.4 | 1.91 | CC(C)OC(=O)N1CCC=C(c2c(F)cc(N3C[C@@H](C)N(C)[C@@H](C)C3)c(NC(=O)c3c[nH]c(=O)cc3C(F)(F)F)c2F)C1 [Example 13, Isopropyl 5-(2,6-difluoro-3-(6-oxo-4-(trifluoromethyl)-1,6-dihydropyridine-3-carboxamido)-4-((3S,5R)-3,4,5-trimethylpiperazin-1-yl)phenyl)-3,6-dihydropyridine-1(2H)-carboxylate]
